# According to patent publication US20200085814A1, “COMBINATION OF CERTINIB WITH AN EGFR INHIBITOR” (Novartis AG, priority 2014, published 2020):
# Entries after “also recorded” stand apart in the source; their conditions may differ. Where two headings read alike, the source gives them in different places.
# What was measured:
# [1] = system: HER3 activation in MGH051 cells; assay: Western blotting, MGH051 cells, inhibitors added for last day of long-term ceritinib treatment; format: cell-based; details: added for the last day of long-term (8 days) ceritinib treatment, MGH051 (FIG. 6)
# Experimental: FIG. 6. Addition of HER3 and EGFR inhibitors represses the rebound in AKT phosphorylation. MGH051 cells were treated with ceritinib (LDK378) for 4 hours or 8 days.
# The activated states of ALK and HER3 of multiple NSCLC cell lines that harbor EML4-ALK translocations were assessed in both short-term and long-term cultures. […] In addition, the levels of pHER3 correlated with the duration of the treatments (FIG. 5). Next, we assessed the activation of the downstream signaling of HER3 and the repression of ceritinib-induced HER3 activation using various inhibitors.
# [2] = system: AKT phosphorylation in MGH051 cells; assay: Western blotting, MGH051 cells, ceritinib 4 hours or 8 days, inhibitors added for last day; format: cell-based; details: MGH051 (FIG. 6); for rebound in AKT phosphorylation: added for the last day of long-term (8 days) ceritinib treatment
# Experimental: (§1) FIG. 6. […] MGH051 cells were treated with ceritinib (LDK378) for 4 hours or 8 days.
# (§2) The activated states of ALK and HER3 of multiple NSCLC cell lines that harbor EML4-ALK translocations were assessed in both short-term and long-term cultures.
# [3] = system: H2228 tumors; assay: H2228 NSCLC xenograft efficacy; format: in vivo, female SCID-beige mice
# Experimental: In this experiment female SCID Beige mice bearing H2228 tumors were used. At start, the mice were 8 to 12 weeks of age. First, the mice were inoculated with 4 mm^3 H2228 tumor fragments by subcutaneous injection in flank. The fragments were dipped in Matrigel before implanting. When tumors reached an average size of 100-150 mm^3 the treatment according to the scheme below commenced. The body weight was measured daily for the first 5 days and then biweekly until end. The tumor was measured biweekly by caliper until end. […] Dosing with the compounds ended on study day 32. After this the tumor size was monitored during an observation phase for re-growth.
# The average tumor volume data in the graphs is not complete through the end of the study for all groups. Once a group lost more than 50% of the animals due to death or ethical sacrifice, the average tumor volume for the remaining animals in these groups was no longer graphed.
# [4] = system: MGH049 cells; assay: Cell proliferation (CellTiter-Glo), EGFR inhibitors with or without ceritinib; format: cell-based
# Experimental: (§3) These cell lines harbor EML4-ALK rearrangements.
# (§4) Three replicate plates were set up for each cell line and drug compound, with or without ceritinib. A representative dose response curve was then calculated by taking the mean across the 3 replicates with and without ceritinib. Proliferation inhibition values were normalized to the measured inhibition value at zero dose of the compound, with and without ceritinib.
# (§5) Experiments performed with cell lines MGH049 and MGH051 are depicted on FIG. 3 and FIG. 4, respectively.
# [5] = system: MGH051 cells
# Experimental: as §3, §4, §5
# [6] = system: NCI-H2228 cells; assay: Secretome screening, CellTiter-Glo cell proliferation in presence of ceritinib; format: cell-based; details: 0.5 μM ceritinib, conditioned supernatant, 96 hours
# Experimental: NCI-H2228 was obtained from ATCC. The cell lines harbored EML4-ALK rearrangements. NCI-H2228 cells were cultured in RPMI-1640 (ATCC Catalog #30-2001) supplemented with 15% FBS.
# Secretome screening was performed as described previously (Lito P, Pratilas C A, et al. Cancer Cell 2012; 22: 668-82). In brief, 317 cDNA constructs that represent 220 unique secreted proteins were reverse transfected into HEK293T cells individually and incubated 4 days to allow accumulation of secreted proteins in supernatant. The supernatant was transferred to the assay cells, namely NCI-H2228 cells, followed by addition of ceritinib to a final concentration of 0.5 μM. Cell proliferation was measured using CellTiter-Glo after 96 hours. Cells treated with DMSO in the absence of conditioned media and with ceritinib alone were used as controls.
# The Cell Titer Glo assay was done with H2228 cell line. The cell line stems from adenocarcinoma; non-small cell lung cancer. Cell Titer Glo assay is a Cell Viability Assay that determined the number of viable cells in culture based on quantitation of the ATP present, which signaled the presence of metabolically active cells.
# “Ceritinib no ligand” represents cells that were treated with ceritinib only (absence of any ligand) and represents the impact of ceritinib on cell viability. […]
# [7] = system: MGH049 cells; assay: Cell proliferation assay (CellTiter-Glo), ceritinib dose response; format: cell-based; details: 144 h; 0.3 μM ceritinib, 6 days, MGH049, relative to median DMSO signal; read-out: percent inhibition of cell proliferation
# Experimental: (§6) MGH049 and MGH051 were obtained from Massachusetts General Hospital (Friboulet L, Li N, et al. Cancer Discovery 2014; 4: 662-73). These cell lines harbor EML4-ALK rearrangements. MGH049 and MGH051 were cultured in DMEM (ATCC Catalog #30-2002) supplemented with 10% FBS.
# (§7) To determine the dose-response relationship between the dose of ceritinib and the magnitude of its effect on cell proliferation, 1K MGH049 and 4K MGH051 cells were plated in each well of 384 well-plates, and grown for 24 hours prior to treatment. Cells were then treated with DMSO or ceritinib at concentrations ranging from 4 nM to 1 μM (3-fold dilutions). After 6 days, cell proliferation was measured using the CellTiter-Glo luminescent cell viability assay. Percent inhibition was calculated relative to median DMSO signal.
# [8] = system: MGH051 cells; assay: as above; format: cell-based; details: 144 h; 0.3 μM ceritinib, 6 days, MGH051, relative to median DMSO signal; read-out: percent inhibition of cell proliferation
# Experimental: as §6, §7
# [9] = system: HER3 phosphorylation in ALK positive NSCLC cell lines; assay: Western blotting of whole cell lysates after short-term and long-term ceritinib treatment; format: cell-based; details: long-term treatment, 4 ALK positive cell lines (FIG. 5)
# Experimental: FIG. 5. […] Cells were harvested after short-term and long-term ceritinib (LDK378) treatment, and whole cell lysates were analyzed by Western blotting.
# as §2
# [10] = system: MGH049 cells; assay: Cell colony formation assay, crystal violet; format: cell-based; details: MGH049, 7 days; for cell growth inhibition as single agent (colony formation): ceritinib 0.5 μM or erlotinib 1 μM (FIG. 7); for anti-proliferative effect in combination with ceritinib versus ceritinib alone (colony formation): ceritinib 0.5 μM + erlotinib 1 μM (FIG. 7)
# Text: (§8) FIGS. 7A and 7B. […] For each cell line, all dishes were fixed, stained and photographed at the same time.
# [11] = system: MGH051 cells; assay: Cell colony formation assay, crystal violet; format: cell-based; details: MGH051, 7 days; for cell growth inhibition as single agent (colony formation): ceritinib 0.5 μM or erlotinib 1 μM (FIG. 7); for anti-proliferative effect in combination with ceritinib versus ceritinib alone (colony formation): ceritinib 0.5 μM + erlotinib 1 μM (FIG. 7)
# Text: as §8
# [12] = system: ERK phosphorylation in MGH051 cells; assay: Western blotting, MGH051 cells, inhibitors added for last day of long-term ceritinib treatment; format: cell-based; details: added for the last day of long-term (8 days) ceritinib treatment, MGH051 (FIG. 6)
# Experimental: as §1, §2
molecule,measurement,setting,value
Antibody A: anti-HER3 antibody comprising the sequences of MOR10703 as defined in Table 1,activation of HER3,[1],markedly suppressed
same,rebound in AKT phosphorylation,[2],markedly suppressed
same,efficacy (tumor volume) of LDK378 in combination with the antibody,"[3]; LDK378 25 or 50 mg/kg po qd × 32 + cetuximab 20 mg/kg ip biwk × 5 or Ab A 25 mg/kg ip qod × 17 (FIGS. 8A, 8B)",significantly improved efficacy of LDK378
same,efficacy of ceritinib with Antibody A and cetuximab combined (triple combination),[3]; ceritinib + Antibody A + cetuximab,significantly improve the efficacy of ceritinib
"Cc1cc(C(=O)Nc2nc3cccc(Cl)c3n2[C@@H]2CCCCN(C(=O)/C=C/CN(C)C)C2)ccn1 [compound A, (R,E)-N-(7-chloro-1-(1-(4-(dimethylamino)but-2-enoyl)azepan-3-yl)-1H-benzo[d]imidazol-2-yl)-2-methylisonicotinamide]","cell growth, EGFR inhibitor in combination with ceritinib","[4]; in combination with 0.5 μM ceritinib, 6 days, MGH049 (FIG. 3)",synergistically reduced cell growth
same,"cell growth, EGFR inhibitor in combination with ceritinib","[5]; in combination with 0.5 μM ceritinib, 6 days, MGH051 (FIG. 4)",synergistically reduced cell growth
"CS(=O)(=O)CCNCc1ccc(-c2ccc3ncnc(Nc4ccc(OCc5cccc(F)c5)c(Cl)c4)c3c2)o1 [lapatinib, N-[3-chloro-4-(3-fluorobenzyloxy)phenyl]-6-{5-[4-(methylsulfonyl)-2-azabutyl]-2-furyl} quinazolin-4-amine]","cell growth, EGFR inhibitor in combination with ceritinib",[4],synergistically reduced cell growth
same,"cell growth, EGFR inhibitor in combination with ceritinib",[5],synergistically reduced cell growth
"Cc1cc(Nc2ncc(Cl)c(Nc3ccccc3S(=O)(=O)C(C)C)n2)c(OC(C)C)cc1C1CCNCC1 [ceritinib, 5-chloro-N^2-(2-isopropoxy-5-methyl-4-(piperidin-4-yl)phenyl)-N^4-[2-(propane-2-sulfonyl)-phenyl]-pyrimidine-2,4-diamine]",reversal of growth inhibitory effect of ceritinib by secreted ligands (cell viability),[6],Ligands for EGFR and ERBB3 clearly overcame the inhibitory effect of ceritinib
same,inhibition at 0.3 µM,[7],20%
same,inhibition at 0.3 µM,[8],70%
same,sensitivity of cell line to ceritinib alone,"[4]; MGH049, no ALK resistance mutations",resistant
same,HER3 phosphorylation,[9],induction of HER3 phosphorylation; also recorded: up-regulation of HER3 phosphorylation
same,AKT phosphorylation,[2]; ceritinib 8-day treatment,profound rebound in AKT phosphorylation
same,AKT phosphorylation,[2]; ceritinib initial (4 hours) treatment,initial inhibition of AKT phosphorylation
same,cell growth inhibition as single agent (colony formation),[10],less effective
same,cell growth inhibition as single agent (colony formation),[11],partially effective
"CN(C)C/C=C/C(=O)Nc1cc2c(Nc3ccc(F)c(Cl)c3)ncnc2cc1O[C@H]1CCOC1 [afatinib, (S,E)-N-(4-((3-chloro-4-fluorophenyl)amino)-7-((tetrahydrofuran-3-yl)oxy)quinazolin-6-yl)-4-(dimethylamino)but-2-enamide]",rebound in AKT phosphorylation,[2],able to suppress the rebound in AKT phosphorylation
same,ERK phosphorylation,[12],enhanced inhibition of ERK phosphorylation
"C#Cc1cccc(Nc2ncnc3cc(OCCOC)c(OCCOC)cc23)c1 [erlotinib, N-(3-ethynylphenyl)-6,7-bis-(2-methoxyethoxy)quinazolin-4-amine]",rebound in AKT phosphorylation,[2],able to suppress the rebound in AKT phosphorylation
same,ERK phosphorylation,[12],enhanced inhibition of ERK phosphorylation
same,anti-proliferative effect in combination with ceritinib versus ceritinib alone (colony formation),[10],greater anti-proliferative effect
same,anti-proliferative effect in combination with ceritinib versus ceritinib alone (colony formation),[10]; listed as Erlotinib,enhances the anti-proliferation activity of ceritinib
same,cell growth inhibition as single agent (colony formation),[10],no effect on cell growth
same,anti-proliferative effect in combination with ceritinib versus ceritinib alone (colony formation),[11],greater anti-proliferative effect
same,anti-proliferative effect in combination with ceritinib versus ceritinib alone (colony formation),[11]; listed as Erlotinib,enhances the anti-proliferation activity of ceritinib
same,cell growth inhibition as single agent (colony formation),[11],no effect on cell growth
